This is an account of results in ChEMBL document CHEMBL1938333, “Novel, potent and orally bioavailable indolizidinone-derived inhibitors of the hepatitis C virus NS3 protease” (Bioorg Med Chem Lett, 2012).

The subject of data set [1] is Hepatitis C virus. The experiment in a line: Inhibition of HCV1b NS3/4A protease by FRET assay. The arrangement: species or system Hepatitis C virus subtype 1b.
The nature of data set [2]: Clearance in Sprague-Dawley rat at 1 mg/kg, iv. The format is ADME, organism-based. The arrangement: dose 1 mg/kg, route intravenous. The conditions noted are these: in vivo.
A short description of data set [3]: Lipophilicity, log D of the compound. The format is physicochemical. The conditions noted are these: octanol/water.
Data set [4] has as its system Hepatitis C virus. The experiment in a line: Antiviral activity against HCV1b infected in human 1b-Rluc cells by replicon assay. The format is functional, organism-based, Hepacivirus hominis. Particulars: genotype 1b. (In general: Replicon systems follow genome replication, usually without infectious particles.)
Data set [5] can be described thus: Oral bioavailability in Sprague-Dawley rat at 10 mg/kg. The format is ADME, organism-based. The conditions noted are these: in vivo.
Data set [6] can be described thus: Mean residence time in Sprague-Dawley rat at 1 mg/kg, iv. The format is ADME, organism-based. The arrangement: dose 1 mg/kg, route intravenous. The conditions noted are these: in vivo.

SMILES strings stand for the structures.

Consider `C=C[C@@H]1C[C@]1(NC(=O)[C@@H]1C[C@@H](Oc2cc(-c3csc(NC(C)C)n3)nc3c(Cl)c(OC)ccc23)CN1C(=O)[C@@H](NC(=O)OC1CCCC1)C(C)(C)C)C(=O)O`, for which half-maximal inhibition in the data set with Hepatitis C virus [1] (IC50) required 2.6 nM.

`C=C[C@@H]1C[C@]1(NC(=O)[C@@H]1C[C@@H](Oc2cc(-c3nc(C(C)C)cs3)nc3c(C)c(OC)ccc23)[C@H]2CC[C@H](C(C)C)C(=O)N21)C(=O)NS(=O)(=O)C1CC1`: the clearance (commonly the volume of plasma or blood freed of the substance per unit of time) in data set [2] is 14.8 mL/min/kg. The logD – broadly, lipophilicity at a set pH, counting ionised and neutral species – in data set [3] is 4.5. Further, the midpoint of inhibition with Hepatitis C virus [1], the IC50, lay at 3 nM. In addition, the EC50 (commonly the concentration needed to bring the measured effect to its halfway point) in the data set with Hepatitis C virus [4] worked out at 213 nM. Besides, the bioavailability (usually the share of a dose that reaches the circulation, judged against a reference dose that is usually intravenous) in data set [5] was 44%. Also, the MRT (as a rule, the average time that molecules of a dose stay in the body) in data set [6] came to 52.8 min.

In the case of `C=C[C@@H]1C[C@]1(NC(=O)[C@@H]1C[C@@H](Oc2cc(-c3nc(C(C)C)cs3)nc3c(C)c(OC)ccc23)[C@H]2CCCC(=O)N21)C(=O)NS(=O)(=O)C1CC1`, the midpoint of inhibition with Hepatitis C virus [1], the IC50, lay at 47 nM.

Take `C=C[C@@H]1C[C@]1(NC(=O)[C@@H]1C[C@@H](Oc2cc(OCC)nc3c(C)c(OC)ccc23)[C@H]2CC[C@H](C(C)C)C(=O)N21)C(=O)NS(=O)(=O)C1CC1`: half-maximal inhibition with Hepatitis C virus [1] (IC50) required 2 nM. This compound yielded an EC50 in the data set on Hepatitis C virus [4] of 818 nM.

Regarding `C=C[C@@H]1C[C@]1(NC(=O)[C@@H]1C[C@@H](Oc2cc(-c3nc(C(C)C)cs3)nc3c(Cl)c(OC)ccc23)[C@H]2CC[C@H](C(C)C)C(=O)N21)C(=O)NS(=O)(=O)C1CC1`, in data set [3], the logD worked out at 3.85. The IC50 (as a rule, the concentration needed to halve the response being measured) with Hepatitis C virus [1] amounted to 2 nM. Besides, the 50% effective concentration (EC50) in the data set with Hepatitis C virus [4] was found to be 76 nM.

`C=C[C@@H]1C[C@]1(NC(=O)[C@@H]1C[C@@H](Oc2cc(-c3nc(C(C)C)cs3)nc3c(Cl)c(OCCOC)ccc23)[C@H]2CC[C@H](C(C)C)C(=O)N21)C(=O)NS(=O)(=O)C1CC1`: the clearance in data set [2] was 11.2 mL/min/kg. In data set [3], this compound returned a logD of 3.54. The compound further showed an IC50 in the data set with Hepatitis C virus [1] of 1 nM. In the data set with Hepatitis C virus [4], a half-maximal effect (EC50) was put at 75 nM. In data set [5], the bioavailability stood at 21%. This compound also returned an MRT in data set [6] of 75.6 min.

For the compound `C=C[C@@H]1C[C@]1(NC(=O)[C@@H]1C[C@@H](Oc2cc(-c3nc(C(C)C)cs3)nc3c(Cl)c(OCCN4CCOCC4)ccc23)[C@H]2CC[C@H](C(C)C)C(=O)N21)C(=O)NS(=O)(=O)C1CC1`, in data set [2], the clearance was 26.2 mL/min/kg. The logD in data set [3] was 3.26. In the data set with Hepatitis C virus [1], this compound showed an IC50 of 3 nM. This compound also displayed an EC50 in the data set with Hepatitis C virus [4] of 81 nM. Moreover, the bioavailability in data set [5] was 35%. In addition, the MRT in data set [6] is 44.4 min.

Consider `C=C[C@@H]1C[C@]1(NC(=O)[C@@H]1C[C@@H](Oc2cc(-c3cccc(C(C)C)n3)nc3c(Cl)c(OCCOC)ccc23)[C@H]2CC[C@H](C(C)C)C(=O)N21)C(=O)NS(=O)(=O)C1CC1`, for which, in the data set with Hepatitis C virus [1], inhibition was half-maximal at 1 nM (IC50). The EC50 with Hepatitis C virus [4] amounted to 144 nM.

In the data set with Hepatitis C virus [1], `C=C[C@@H]1C[C@]1(NC(=O)[C@@H]1C[C@@H](Oc2cc(-c3nc(C(C)C)cs3)nc3c(Cl)c(OC)ccc23)[C@H]2CCCC(=O)N21)C(=O)NS(=O)(=O)C1CC1` showed an IC50 of 32 nM.
